Test results from patent US20210045385A1, “PYRIDAZINONE-SUBSTITUTED KETOXIMES AS HERBICIDES” (FMC Corporation, priority 2018, published 2021).

Experiments:
Assay type in all cases: in vivo
[1] = test system: corn (Zea mays); assay: Test A postemergence, visual plant response rating; conditions: for Corn plant response rating (0 to 100 scale): 500 g ai/ha, postemergence, 0 is no effect, 100 is complete control; for Corn plant response rating: Postemergence, 125 g ai/ha, 0 to 100 scale (0 no effect, 100 complete control)
Summary of the method: (§1)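 Formulated in a non-phytotoxic solvent mixture including surfactant, each test chemical was sprayed onto the soil surface after sowing, or onto seedlings 2 to 10 cm high. Roughly 10 days later, plants were compared with untreated controls and rated for injury from 0 (no effect) to 100 (complete control).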

[2] = test system: pigweed (Amaranthus retroflexus); assay: Test A postemergence, visual plant response rating; conditions: for Pigweed plant response rating (0 to 100 scale): 500 g ai/ha, postemergence, 0 is no effect, 100 is complete control; for Pigweed plant response rating: Postemergence, 125 g ai/ha, 0 to 100 scale (0 no effect, 100 complete control)
Summary of the method: as §1

[3] = test system: kochia (Kochia scoparia); assay: Test A postemergence, visual plant response rating; conditions: for Kochia plant response rating (0 to 100 scale): 500 g ai/ha, postemergence, 0 is no effect, 100 is complete control; for Kochia plant response rating: Postemergence, 125 g ai/ha, 0 to 100 scale (0 no effect, 100 complete control)
Summary of the method: as §1

[4] = test system: galium (catchweed bedstraw, Galium aparine); assay: Test A postemergence, visual plant response rating; conditions: for Galium plant response rating (0 to 100 scale): 500 g ai/ha, postemergence, 0 is no effect, 100 is complete control; for Galium plant response rating: Postemergence, 125 g ai/ha, 0 to 100 scale (0 no effect, 100 complete control)
Summary of the method: as §1

[5] = test system: foxtail, giant (giant foxtail, Setaria faberii); assay: Test A postemergence, visual plant response rating; conditions: for Foxtail, Giant plant response rating (0 to 100 scale): 500 g ai/ha, postemergence, 0 is no effect, 100 is complete control; for Foxtail, Giant plant response rating: Postemergence, 125 g ai/ha, 0 to 100 scale (0 no effect, 100 complete control)
Summary of the method: as §1

[6] = test system: blackgrass (Alopecurus myosuroides); assay: Test A postemergence, visual plant response rating; conditions: for Blackgrass plant response rating (0 to 100 scale): 500 g ai/ha, postemergence, 0 is no effect, 100 is complete control; for Blackgrass plant response rating: Postemergence, 125 g ai/ha, 0 to 100 scale (0 no effect, 100 complete control)
Summary of the method: as §1

[7] = test system: Italian ryegrass (Lolium multiflorum); assay: Test A postemergence, visual plant response rating; conditions: for Ryegrass, Italian plant response rating (0 to 100 scale): 500 g ai/ha, postemergence, 0 is no effect, 100 is complete control; for Ryegrass, Italian plant response rating: Postemergence, 125 g ai/ha, 0 to 100 scale (0 no effect, 100 complete control)
Summary of the method: as §1

[8] = test system: barnyardgrass (Echinochloa crus-galli); assay: Test A postemergence, visual plant response rating; conditions: for Barnyardgrass plant response rating (0 to 100 scale): 500 g ai/ha, postemergence, 0 is no effect, 100 is complete control; for Barnyardgrass plant response rating: Postemergence, 125 g ai/ha, 0 to 100 scale (0 no effect, 100 complete control)
Summary of the method: as §1

[9] = test system: wheat (Triticum aestivum); assay: Test A postemergence, visual plant response rating; conditions: for Wheat plant response rating (0 to 100 scale): 500 g ai/ha, postemergence, 0 is no effect, 100 is complete control; for Wheat plant response rating: Postemergence, 125 g ai/ha, 0 to 100 scale (0 no effect, 100 complete control)
Summary of the method: as §1

[10] = test system: ragweed (common ragweed, Ambrosia elatior); assay: Test A postemergence, visual plant response rating; conditions: for Ragweed plant response rating (0 to 100 scale): 500 g ai/ha, postemergence, 0 is no effect, 100 is complete control; for Ragweed plant response rating: Postemergence, 125 g ai/ha, 0 to 100 scale (0 no effect, 100 complete control)
Summary of the method: as §1

[11] = test system: pigweed (Amaranthus retroflexus); assay: Test A preemergence, visual plant response rating; conditions: for Pigweed plant response rating: 125 g ai/ha, preemergence, 0 to 100 scale, 0 no effect, 100 complete control; for Pigweed plant response rating (0 to 100 scale): 500 g ai/ha Preemergence, approx. 10 days
Summary of the method: as §1

[12] = test system: kochia (Kochia scoparia); assay: Test A preemergence, visual plant response rating; conditions: for Kochia plant response rating: 125 g ai/ha, preemergence, 0 to 100 scale, 0 no effect, 100 complete control; for Kochia plant response rating (0 to 100 scale): 500 g ai/ha Preemergence, approx. 10 days
Summary of the method: as §1

[13] = test system: foxtail, giant (giant foxtail, Setaria faberii); assay: Test A preemergence, visual plant response rating; conditions: for Foxtail, Giant plant response rating: 125 g ai/ha, preemergence, 0 to 100 scale, 0 no effect, 100 complete control; for Foxtail, Giant plant response rating (0 to 100 scale): 500 g ai/ha Preemergence, approx. 10 days
Summary of the method: as §1

[14] = test system: Italian ryegrass (Lolium multiflorum); assay: Test A preemergence, visual plant response rating; conditions: for Ryegrass, Italian plant response rating: 125 g ai/ha, preemergence, 0 to 100 scale, 0 no effect, 100 complete control; for Ryegrass, Italian plant response rating (0 to 100 scale): 500 g ai/ha Preemergence, approx. 10 days
Summary of the method: as §1

[15] = test system: barnyardgrass (Echinochloa crus-galli); assay: Test A preemergence, visual plant response rating; conditions: for Barnyardgrass plant response rating: 125 g ai/ha, preemergence, 0 to 100 scale, 0 no effect, 100 complete control; for Barnyardgrass plant response rating (0 to 100 scale): 500 g ai/ha Preemergence, approx. 10 days
Summary of the method: as §1

[16] = test system: ragweed (common ragweed, Ambrosia elatior); assay: Test A preemergence, visual plant response rating; conditions: for Ragweed plant response rating: 125 g ai/ha, preemergence, 0 to 100 scale, 0 no effect, 100 complete control; for Ragweed plant response rating (0 to 100 scale): 500 g ai/ha Preemergence, approx. 10 days
Summary of the method: as §1

[17] = test system: rice (Oryza sativa); assay: Test B flooded paddy test, visual plant response rating; conditions: 250 g ai/ha, Flood, applied to paddy water, 2-leaf stage, evaluated after 13 to 15 days
Summary of the method: (§2)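 Test pots are flooded 3 cm above the soil at treatment, and the test substance is introduced into this standing water. After keeping the flood level and growing plants, treated at the 2-leaf stage, for 13 to 15 days under glass, injury is assessed visually versus controls.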

[18] = test system: sedge, umbrella (small-flower umbrella sedge, Cyperus difformis); assay: as above; conditions: 250 g ai/ha, Flood, applied to paddy water, 2-leaf stage, evaluated after 13 to 15 days
Summary of the method: as §2

[19] = test system: barnyardgrass (Echinochloa crus-galli); assay: as above; conditions: 250 g ai/ha, Flood, applied to paddy water, 2-leaf stage, evaluated after 13 to 15 days
Summary of the method: as §2

[20] = test system: ducksalad (Heteranhera limosa); assay: as above; conditions: 250 g ai/ha, Flood, applied to paddy water, 2-leaf stage, evaluated after 13 to 15 days
Summary of the method: as §2

SMILES	Corn plant response rating (0 to 100 scale) [1]	Corn plant response rating [1]	Pigweed plant response rating (0 to 100 scale) [2]	Pigweed plant response rating [2]	Kochia plant response rating (0 to 100 scale) [3]	Kochia plant response rating [3]	Galium plant response rating (0 to 100 scale) [4]	Galium plant response rating [4]	Foxtail, Giant plant response rating (0 to 100 scale) [5]	Foxtail, Giant plant response rating [5]	Blackgrass plant response rating (0 to 100 scale) [6]	Blackgrass plant response rating [6]	Ryegrass, Italian plant response rating (0 to 100 scale) [7]	Ryegrass, Italian plant response rating [7]	Barnyardgrass plant response rating (0 to 100 scale) [8]	Barnyardgrass plant response rating [8]	Wheat plant response rating (0 to 100 scale) [9]	Wheat plant response rating [9]	Ragweed plant response rating (0 to 100 scale) [10]	Ragweed plant response rating [10]	also measured
CCO/N=C(/c1c(O)c(C)nn(C)c1=O)c1ccc(F)c2ccccc12 [Compound 84]	30	20	90	80	80	70	100	90	80	70	100	90	100	90	80	60	50	40	100	90	Pigweed plant response rating [11]: 100; Pigweed plant response rating (0 to 100 scale) [11]: 100; Kochia plant response rating [12]: 20; Kochia plant response rating (0 to 100 scale) [12]: 60; Foxtail, Giant plant response rating [13]: 100; Foxtail, Giant plant response rating (0 to 100 scale) [13]: 100; Ryegrass, Italian plant response rating [14]: 100; Ryegrass, Italian plant response rating (0 to 100 scale) [14]: 100; Barnyardgrass plant response rating [15]: 60; Barnyardgrass plant response rating (0 to 100 scale) [15]: 100; Ragweed plant response rating [16]: 80; Ragweed plant response rating (0 to 100 scale) [16]: 100; Plant response rating, Rice (0 to 100 scale, 0 is no effect, 100 is complete control) [17]: 0; Plant response rating, Sedge, Umbrella (0 to 100 scale, 0 is no effect, 100 is complete control) [18]: 0; Plant response rating, Barnyardgrass (0 to 100 scale, 0 is no effect, 100 is complete control) [19]: 0; Plant response rating, Ducksalad (0 to 100 scale, 0 is no effect, 100 is complete control) [20]: 0
CCO/N=C(\c1c(O)c(C)nn(C)c1=O)c1ccc(F)c2ccccc12 [Compound 85]	30	10	90	80	90	70	90	80	80	70	100	90	100	90	80	50	50	40	100	90	Pigweed plant response rating [11]: 100; Pigweed plant response rating (0 to 100 scale) [11]: 100; Kochia plant response rating [12]: 10; Kochia plant response rating (0 to 100 scale) [12]: 50; Foxtail, Giant plant response rating [13]: 80; Foxtail, Giant plant response rating (0 to 100 scale) [13]: 100; Ryegrass, Italian plant response rating [14]: 100; Ryegrass, Italian plant response rating (0 to 100 scale) [14]: 100; Barnyardgrass plant response rating [15]: 70; Barnyardgrass plant response rating (0 to 100 scale) [15]: 90; Ragweed plant response rating [16]: 90; Ragweed plant response rating (0 to 100 scale) [16]: 100; Plant response rating, Rice (0 to 100 scale, 0 is no effect, 100 is complete control) [17]: 0; Plant response rating, Sedge, Umbrella (0 to 100 scale, 0 is no effect, 100 is complete control) [18]: 0; Plant response rating, Barnyardgrass (0 to 100 scale, 0 is no effect, 100 is complete control) [19]: 0; Plant response rating, Ducksalad (0 to 100 scale, 0 is no effect, 100 is complete control) [20]: 0
C=CCO/N=C(\c1c(O)c(C)nn(C)c1=O)c1ccc(F)c2ccccc12 [Compound 86]	20	0	80	70	50	40	100	70	80	70	90	90	100	90	80	50	80	50	100	100	Pigweed plant response rating [11]: 90; Pigweed plant response rating (0 to 100 scale) [11]: 100; Kochia plant response rating [12]: 20; Kochia plant response rating (0 to 100 scale) [12]: 30; Foxtail, Giant plant response rating [13]: 100; Foxtail, Giant plant response rating (0 to 100 scale) [13]: 100; Ryegrass, Italian plant response rating [14]: 100; Ryegrass, Italian plant response rating (0 to 100 scale) [14]: 100; Barnyardgrass plant response rating [15]: 90; Barnyardgrass plant response rating (0 to 100 scale) [15]: 90; Ragweed plant response rating [16]: 80; Ragweed plant response rating (0 to 100 scale) [16]: 100; Plant response rating, Rice (0 to 100 scale, 0 is no effect, 100 is complete control) [17]: 0; Plant response rating, Sedge, Umbrella (0 to 100 scale, 0 is no effect, 100 is complete control) [18]: 0; Plant response rating, Barnyardgrass (0 to 100 scale, 0 is no effect, 100 is complete control) [19]: 0; Plant response rating, Ducksalad (0 to 100 scale, 0 is no effect, 100 is complete control) [20]: 0
C=CCO/N=C(/c1c(O)c(C)nn(C)c1=O)c1ccc(F)c2ccccc12 [Compound 87]	30	0	90	70	70	40	100	80	80	70	90	80	100	80	80	60	60	40	90	100	Pigweed plant response rating [11]: 30; Pigweed plant response rating (0 to 100 scale) [11]: 100; Kochia plant response rating [12]: 0; Kochia plant response rating (0 to 100 scale) [12]: 30; Foxtail, Giant plant response rating [13]: 90; Foxtail, Giant plant response rating (0 to 100 scale) [13]: 100; Ryegrass, Italian plant response rating [14]: 90; Ryegrass, Italian plant response rating (0 to 100 scale) [14]: 100; Barnyardgrass plant response rating [15]: 70; Barnyardgrass plant response rating (0 to 100 scale) [15]: 90; Ragweed plant response rating [16]: 90; Ragweed plant response rating (0 to 100 scale) [16]: 90; Plant response rating, Rice (0 to 100 scale, 0 is no effect, 100 is complete control) [17]: 0; Plant response rating, Sedge, Umbrella (0 to 100 scale, 0 is no effect, 100 is complete control) [18]: 0; Plant response rating, Barnyardgrass (0 to 100 scale, 0 is no effect, 100 is complete control) [19]: 0; Plant response rating, Ducksalad (0 to 100 scale, 0 is no effect, 100 is complete control) [20]: 0
